Measurements as given in article PMC8840081, “Phenylalanine-Based AMPA Receptor Antagonist as the Anticonvulsant Agent with Neuroprotective Activity—In Vitro and In Vivo Studies” (Molecules, 2022).

How the values were obtained:
[1] = test system: IMR-32 neuroblastoma cells; assay: neuroprotection against 6-OHDA-induced LDH release; format: cell-based, human; settings: IMR-32, compound 50 µM, 1 h pretreatment, 200 µM 6-OHDA, 24 h
Description: All cell culture protocols and assay conditions were applied as we reported previously. SH-SY5Y (ATCC® CRL-2266™) cell line was purchased from ATCC (Manassas, VA, USA). IMR-32 (ATCC® CCL-127™) cell line was kindly provided by the Department of Oncogenomics, Academisch Medisch Centrum, Amsterdam, Holland. Before each test SH-SY5Y or IMR-32 cells were seeded in 96-well plates with transparent bottom at a concentration of 2.5 × 10^4 cells/well in 100 μL of respective cell culture medium and cultured for 24 h to reach 70% confluence. • Cell Viability
CytoTox-ONE™ Homogeneous Membrane Integrity Assay, which based on the LDH release, was purchased from Promega (Madison, WI, USA). SH-SY5Y or IMR-32 cells were seeded in 96-well white plates with transparent bottom. For neuroprotective studies, the cells were preincubated first for 1 h with compound 1, 8 or reference antioxidants AA, TX (all at the concentration of 50 μM) and next the neurotoxin 6-OHDA (Sigma-Aldrich, Inc., St. Louis, MO, USA) was added at final concentration of 50 μM (SH-SY5Y assay) or 200 µM (IMR-32 assay). After 24 h of incubation, the CytoTox-ONE™ was added to each well and the cells were incubated next for 10 min at room temperature. The fluorescence was measured using a microplate reader EnSpire (PerkinElmer, Waltham, MA, USA) with an excitation wavelength of 560 nm and an emission wavelength of 590 nm. All measurements were performed in triplicate and results are shown as mean ± SD. The similar studies were also performed with SH-SY5Y cells injured by 100 μM of 6-OHDA (Figure S1, Supporting Materials). • ROS Assay

native AMPA receptors = settings: cited from earlier work
[2] = test system: electrically induced seizures in mice; assay: maximal electroshock (MES) test; format: in vivo; settings: 100 mg/kg i.p.
Description: Behavioral experiments were carried out in male Albino Swiss (CD-1) mice weighing 18–22 g. The mice were kept in cages, in groups of 10 animals. They had free access to food and water before experiments, and were maintained at room temperature 22–24 °C, under 12:12 (light/dark) cycle. For the assays the animals were selected randomly. After the experiments the animals were euthanized by cervical dislocation. Experimental procedures for in vivo tests were approved by the Local Ethics Committee of the Jagiellonian University in Krakow (Approval No. 33/2018; release date: 1.02.2018) and the treatment of animals was performed in full accordance with ethical standards laid down in respective Polish and EU regulations (Directive 2010/63/EU).
Oxaliplatin was purchased from Activate Scientific GmbH (Prien, Germany). PTZ and STZ were provided by Merck KGaA (Darmstadt, Germany). For the in vivo tests, the compound 1 was suspended in 1% Tween 80 solution (Polskie Odczynniki Chemiczne, Gliwice, Poland), then being administered intraperitoneally 1 h before tests. For the evaluation of anticonvulsant properties of the test compound, a fixed dose of 100 mg/kg, was used. Since many AEDs at lower doses are used as analgesic drugs, for pain tests the doses 10 and 30 mg/kg were selected.
MES test was performed as described previously. […]

[3] = test system: tactile allodynia in diabetic mice; assay: diabetic (STZ) neuropathic pain model, von Frey test; format: in vivo; settings: 30 mg/kg i.p.
Description: Behavioral experiments were carried out in male Albino Swiss (CD-1) mice weighing 18–22 g. The mice were kept in cages, in groups of 10 animals. They had free access to food and water before experiments, and were maintained at room temperature 22–24 °C, under 12:12 (light/dark) cycle. For the assays the animals were selected randomly. After the experiments the animals were euthanized by cervical dislocation. […]
To induce type I diabetes and diabetic neuropathic pain, mice were administered STZ, an alkylating antitumor drug that destroys insulin-secreting islet cells. […] Blood glucose levels were measured 1 day before (referred to as ‘day 0′) and repeatedly 1, 2 and 3 weeks after STZ injection using a blood glucose monitoring system (AccuChek Active, Roche, France). […]
The electronic von Frey unit (Bioseb, France) is supplied with a single flexible filament applying increasing force (from 0 to 10 g) against the plantar surface of the hind paw. In this assay the nocifensive paw withdrawal response automatically turns off the stimulus and the mechanical pressure that evoked the response was recorded. […]

Human MAO-B = target: T1, Human MAO-B (Homo sapiens, UniProt P27338); assay: MAO-B inhibition, Amplex Red Monoamine Oxidase kit; format: biochemical
T1 construct: purchased Merck KGaA (Darmstadt, Germany)
T1 sequence (P27338 1-520): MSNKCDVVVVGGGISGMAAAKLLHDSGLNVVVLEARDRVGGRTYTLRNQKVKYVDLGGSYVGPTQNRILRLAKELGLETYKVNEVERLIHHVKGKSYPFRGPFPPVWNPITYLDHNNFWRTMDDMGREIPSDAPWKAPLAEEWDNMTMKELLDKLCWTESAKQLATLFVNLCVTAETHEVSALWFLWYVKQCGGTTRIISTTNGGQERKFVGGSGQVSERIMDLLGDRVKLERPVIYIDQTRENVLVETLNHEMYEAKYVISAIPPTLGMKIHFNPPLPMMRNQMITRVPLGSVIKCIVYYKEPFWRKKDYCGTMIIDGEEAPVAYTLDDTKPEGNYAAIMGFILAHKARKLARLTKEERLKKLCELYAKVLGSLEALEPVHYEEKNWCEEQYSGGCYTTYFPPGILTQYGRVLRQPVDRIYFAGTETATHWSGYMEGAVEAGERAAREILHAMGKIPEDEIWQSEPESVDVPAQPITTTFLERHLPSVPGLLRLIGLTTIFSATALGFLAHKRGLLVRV
Description: Human MAO-B was purchased from Merck KGaA (Darmstadt, Germany). The activity of compound 1 and 8 was measured in the presence of p-tyramine (200 μM). […] Firstly, inhibitors’ activity was measured in a concentration of 1 μM. […] For compounds that inhibited the enzyme by more than 50% further studies were conducted to obtain IC50 from concentration–response curves. All calculations were made in Microsoft Excel and GraphPadPrism software. All experiments were performed in duplicate and data are expressed as mean ± SEM.

## NC(Cc1cc(-c2cc(O)ccc2O)c(Cl)c([N+](=O)[O-])c1)C(=O)O (stereo not drawn) [Compound 1]
[1]
  6-OHDA-induced release of LDH (neuroprotection): statistically significant decrease
Native AMPA receptors
  selectivity over NMDA and KA receptors: high selectivity
Native AMPA receptors; native AMPA receptors, rat brain membranes, mean of three experiments, read-out: [3H]AMPA Ki
  Ki: 0.92 µM
[2]
  Mortality rate (%): 25%
[2]; 1 h before test
  X/Y, number of mice protected (X) per number of mice tested (Y): 0/4
[3]
  antiallodynic activity, von Frey test: not able to attenuate tactile allodynia
Human MAO-B; dose-dependent curve
  maximum MAO-B inhibition attained: 52%
Human MAO-B; p-tyramine 200 μM
  IC50: 0.278 ± 0.029 µM
Human MAO-B; read-out: MAO-B inhibition, screening
  inhibition at 1 µM: > 50%
